For assay [1], the system named is TERRA (RNA, G4) AGGGUUAGGGUUAGGGUUAGGG
The experiment in a line: G4-FID. To be noted: 100 mM KCl, 10 mM lithium cacodylate pH 7.3, thiazole orange 0.5 µM displaced.

The test system of assay [2] is NRAS (RNA, G4) GGGAGGGGCGGGUCUGGG
Description: G4-FID. As to conditions: 100 mM KCl, 10 mM lithium cacodylate pH 7.3, thiazole orange 0.5 µM displaced.

Assay [3] has as its system c-Myc22 (G14T-G23T) (DNA, G4) TGAGGGTGGGTAGGGTGGGTAA
Description: G4-FID. As to conditions: 100 mM KCl, 10 mM lithium cacodylate pH 7.3, thiazole orange 0.5 µM displaced.

The subject of assay [4] is CEB25wt (DNA, G4) AAGGGTGGGTGTAAGTGTGGGTGGGT
Description: G4-FID. To be noted: 100 mM KCl, 10 mM lithium cacodylate pH 7.3, thiazole orange 0.5 µM displaced.

Assay [5] concerns 22AG (DNA, G4) AGGGTTAGGGTTAGGGTTAGGG
Description: G4-FID. To be noted: 100 mM KCl, 10 mM lithium cacodylate pH 7.3, thiazole orange 0.5 µM displaced.

The subject of assay [6] is Biot-hTelo (DNA, G4) GGTTAGGGTTAGGGTTAGGGTTAGGGTTAGG
The experiment in a line: adapted ELISA, anti-BrdU antibody. As to conditions: 100 mM KCl; 10 mM Tris-HCl pH 7.4; 250 nM ligand, oligonucleotide varied; apparent.

Assay [7] relates to Biot-cMyc (DNA, G4) TGAGGGTGGGTAGGGTGGGTAA
Description: adapted ELISA, anti-BrdU antibody. As to conditions: 100 mM KCl; 10 mM Tris-HCl pH 7.4; 250 nM ligand, oligonucleotide varied; apparent.

Assay [8] relates to Biot-TERRA (RNA, G4) UUAGGGUUAGGGUUAGGGUUAGGG
Description: adapted ELISA, anti-BrdU antibody. As to conditions: 100 mM KCl; 10 mM Tris-HCl pH 7.4; 250 nM ligand, oligonucleotide varied; apparent.

Assay [9] deals with 21CTA (DNA, G4) GGGCTAGGGCTAGGGCTAGGG
The experiment in a line: G4-FID. As to conditions: 100 mM KCl, 10 mM lithium cacodylate pH 7.3, thiazole orange 0.5 µM displaced.

Assay [10] relates to cKit2 (DNA, G4) GGGCGGGCGCGAGGGAGGGG
Description: G4-FID. To be noted: 100 mM KCl, 10 mM lithium cacodylate pH 7.3, thiazole orange 0.5 µM displaced.

The test system of assay [11] is CEB25L111T (DNA, G4) AAGGGTGGGTGGGTGGGT
Description: G4-FID. As to conditions: 100 mM KCl, 10 mM lithium cacodylate pH 7.3, thiazole orange 0.5 µM displaced.

The test system of assay [12] is F21T (DNA, G4) GGGTTAGGGTTAGGGTTAGGG
Description: FRET melting. To be noted: 10 mM KCl, 90 mM LiCl; 10 mM lithium cacodylate pH 7.2; 0.2 µM G4; 1 µM ligand; no competitor.

Consider `C[n+]1cc(NC(=O)c2cc(NCCCCNC(=O)CCCc3cn(CO[C@H]4C[C@H](n5cc(Br)c(=O)[nH]c5=O)O[C@@H]4CO)nn3)cc(C(=O)Nc3cc4ccccc4[n+](C)c3)n2)cc2ccccc21`, for which the DC50 in assay [1] (0.25 µM G4) turned out to be 0.42 µM; in assay [2] (0.25 µM G4), 0.32 µM; in assay [3] (0.25 µM G4) it was 520 nM; in [4] (0.25 µM G4), 760 nM; in assay [5] (0.25 µM G4) it was 800 nM; in assay [9] (0.25 µM G4), 1100 nM. In addition, the DC50 was found to be 380 nM in assay [10] (0.25 µM G4) and 480 nM in assay [11] (0.25 µM G4). In addition, the Kd in [6] amounted to 9.6 ± 1.3 nM; in assay [7] it was 3.5 ± 0.9 nM; in [8], 29.6 ± 7.8 nM.
Turning to `C#CCCCC(=O)NCCCCNc1cc(C(=O)Nc2cc3ccccc3[n+](C)c2)nc(C(=O)Nc2cc3ccccc3[n+](C)c2)c1`, the DC50 in [1] (0.25 µM G4) stood at 0.31 µM; in [2] (0.25 µM G4), 0.21 µM; in assay [3] (0.25 µM G4), 310 nM; in assay [4] (0.25 µM G4), 400 nM; in [5] (0.25 µM G4) it was 370 nM; in assay [9] (0.25 µM G4), 300 nM. Besides, the DC50 in [10] (0.25 µM G4) stood at 200 nM; in assay [11] (0.25 µM G4), 230 nM. For the same compound, the binding result in [12] is listed as “yes”.
`C[n+]1cc(NC(=O)c2cccc(C(=O)Nc3cc4ccccc4[n+](C)c3)n2)cc2ccccc21`: the DC50 in [1] (0.25 µM RNA, decimal comma) was 0,25 µM; in [2] (0.25 µM RNA, decimal comma), 0,20 µM; in assay [3] (0.25 µM DNA), 150 nM; in assay [4] (0.25 µM DNA), 290 nM; in assay [5] (0.25 µM DNA), 340 nM; in assay [9] (0.25 µM DNA) it was 180 nM. Moreover, the DC50 in [10] (0.25 µM DNA) is 180 nM; in assay [11] (0.25 µM DNA), 260 nM.

The values above are taken from paper PMC8682774 (2021).
